Series [1] is described as follows: Plasma levels of compound 17 after intravenous injection in normal rats (LC-MS/MS). The settings on record: 3 or 10 μmol/kg intravenous injection, normal conscious male Sprague-Dawley rats, FIG. 1. The series is classed as in vivo, rat. Here is the method: (§1) 2-(2-Hydroxy-phenyl)-3-phenethyl-3H-quinazolin-4-one (compound 17) (3 or 10 μmol/kg) or vehicle was administered by intravenous injection over about 15 seconds to normal conscious male Sprague-Dawley rats with chronic indwelling arterial and venous catheters. Arterial blood samples were collected immediately before, and at 1, 5, 10, and 30 min after the start of the injection for measurement of the levels of parathyroid hormone (PTH), ionized calcium (Ca^2+) and compound 17 in plasma. PTH was measured using a specific rat PTH (1-84) ELISA (Immutopics, San Clemente, Calif.) and compound 17 was quantified by an LC-MS/MS method. Positive ions were generated by turbo ionspray and were subsequently fragmented by collision-induced dissociation, so that compound 17 could be detected by selected-reaction monitoring.

The subject of series [2] is parathyroid hormone (PTH). Put plainly: Plasma PTH levels after intravenous injection in normal rats (rat PTH (1-84) ELISA). The series is classed as in vivo. The settings on record: 3 or 10 μmol/kg intravenous injection, normal conscious male Sprague-Dawley rats, FIG. 2. As for the experimental part:
as §1
(ELISA stands for enzyme-linked immunosorbent assay.)

The test system of another series is ionized calcium (Ca^2+). Kind of series: Plasma ionized calcium levels after intravenous injection in normal rats. The series is classed as in vivo, rat. The settings on record: 3 or 10 μmol/kg intravenous injection, normal conscious male Sprague-Dawley rats, up to 30 min (not shown). Here is the method: as §1

A value given as a limit tells only on which side of the number the result lay.

As to `O=c1c2ccccc2nc(-c2ccccc2O)n1CCc1ccccc1` [compound 17, 2-(2-Hydroxy-phenyl)-3-phenethyl-3H-quinazolin-4-one], in series [1], the “course of plasma levels of compound after the maximum” value was “declined rapidly during the next 10-30 min” and the “time after injection at which plasma levels of compound were maximal” value is 1 min. In addition, in series [2], the “effect on plasma PTH levels” value is “rapid, but transient dose-related increase”; the “time after injection at which plasma PTH levels were maximal” value is given as 1 min; the “time after injection by which plasma PTH levels had returned to pre-dose levels” value is at most 10 min. The “changes in plasma Ca^2+ levels” value in the series with ionized calcium (Ca^2+) is recorded as “no consistent changes”.

The record behind these values is patent publication US20060052345A1, “Quinazolinone compounds as calcilytics” (NPS Pharmaceuticals, Inc., priority 2002, published 2006).
